The record followed here is patent US20260242366A1, “STING AGONISTS CONTAINING HYDRAZIDE, HYDRAZINE, AND HYDROXAMIC ACID FUNCTIONAL GROUPS” (BioNTech SE, priority 2023, published 2026).

The structures appear in SMILES notation. Where two headings read alike, the source gives them in different places.

In test [1] the test system is 4T1 cells. As to the kind of experiment: Anti-tumoral efficacy in murine 4T1 breast cancer model. The format is in vivo, Balb/c Rj mice. As for the experimental part: The anti-tumoral efficacy of compound I-D was tested in a murine 4T1 breast cancer model. Balb/c Rj mice were injected subcutaneously with 1×10^5 4T1 cells. Three doses of compound I-D formulated in 5% Solutol in 2.5% glucose (31 nmol, 3.1 nmol and 0.31 nmol) or the vehicle control (5% Solutol in 2.5% glucose) were administered intratumorally at days 11, 16 and 21 after inoculation. Tumor size was monitored using BioVolume® (calculating the tumor size based on RGB, thermal and 3D model data) until day 21, when animals were sacrificed and tumor cytokines were analyzed compared to serum 3 h after final agonist injection. To evaluate the statistical significance of tumor volume reduction compared to the vehicle control, a 2way ANOVA test was used: *** p<0.0001.

Test [2] concerns PBMCs from healthy donors. The experiment in a line: PBMC assay, dose-dependent cytokine induction. The settings on record: Homo sapiens, 24 h. It is filed as cell-based. As for the experimental part: Compounds I-A to IV were additionally tested on PBMCs from healthy donors to determine the dose-dependent cytokine induction. PBMCs from buffy coats were thawed on the day of the experiment and seeded with a density of 5×10^5 cells per well (96-well format, RPMI with 5% Human Serum+1% MEM Non-Essential Amino Acids+1% Sodium Pyruvate). In line with the experiment above, a serial dilution of the compounds was prepared and added to the cells for 24 hours. On the next days, cells were centrifuged and supernatants harvested for a cytokine readout based on a multiplex assay kit from mesoscale discovery (customized multiplex panel for the cytokines: IFNα2a, IFNβ, TNFα and IL6). Impact on cell viability was determined by CellTiter Glo2.0 from promega (Cat. G9241). Both experimental read outs were performed according to the manufacturer's instructions.

The target in test [3] is T1, human STING (Homo sapiens, UniProt Q86WV6).
T1 construct: fused on or other part: His tag; chemically biotinylated (Sulfo-NHS-LC-Biotin) for capture on the chip
T1 sequence (Q86WV6 153-340 limits assumed): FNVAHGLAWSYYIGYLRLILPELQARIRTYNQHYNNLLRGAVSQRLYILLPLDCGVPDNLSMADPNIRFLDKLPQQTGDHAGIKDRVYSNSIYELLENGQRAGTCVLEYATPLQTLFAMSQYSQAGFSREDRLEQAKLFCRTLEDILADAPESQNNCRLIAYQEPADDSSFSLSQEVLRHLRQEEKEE
As to the kind of experiment: Affinity measurement assay (Biacore T200 SPR). The settings on record: biotinylated human STING, 25° C., 1:1 binding model, read-out: Affinity (Kd) rhSTING. As for the experimental part: T7 Shuffle E. coli cells, transformed with an expression vector encoding either a truncated version of human or murine His-tagged STING, were cultivated overnight in 50 mL LB media. 200 mL of LB media were inoculated to an OD600 of 0.05 and cells were grown at 37° C. at 120 rpm until an OD600 of 0.5 was reached. Protein expression was induced using 1 mM IPTG and cells were further cultivated at 30° C. over night. Cells were harvested by centrifugation at 4000 rpm for 30 min at 4° C. and frozen at −80° C. Subsequently, cells were thawed and resuspended in 30 mL IMAC-Buffer A (10 mM HEPES, 50 mM NaCl, 10 mM Imidazole, 250 mM L-Arginine, 10% Glycerol, pH 7.1) supplemented with 15 U/mL benzonase, 0.2 mg/mL MgCl2 and 0.1 mg/mL lysozyme. Lysis was performed by five sonification cycles with an amplitude of 25% and a pulse for 2 s, with 5 min incubation on ice between cycles. The lysate was centrifuged for 15 min at 16.000 g and the supernatant was filtrated (0.22 μm). Purification of STING was done using an ÄKTA prime chromatography system. A 1 mL His Trap excel column was equilibrated with IMAC-Buffer A before lysate was applied. After washing with multiple column volumes of buffer, STING was eluted using a linear gradient of IMAC-Buffer B (10 mM HEPES, 50 mM NaCl, 500 mM Imidazole, 250 mM L-Arginine, 10% Glycerol, pH 7.1). Elution fractions were analyzed by SDS-PAGE and STING containing fractions were mixed. Using the Äkta pure system in combination with a HiLoad Superdex 16/600 75 pg column, STING was further purified by preparative size-exclusion chromatography. Fractions were analyzed by SDS-PAGE and STING containing fractions were combined.
Purified proteins were biotinylated using EZ-Link Sulfo-NHS-LC-Biotin (Life Technologies GmbH) in ten-fold excess for 2 h on ice. The reaction was quenched by addition of 100 mM Tris pH8 and 1 h incubation on ice. Remaining biotin was removed by performing buffer exchange to PBS using Zeba Spin Desalting Columns, 7K MWCO, 0.5 mL (Thermo Fischer). Protein concentrations were determined using the Nanodrop system.
Affinity measurement of STING-binding compounds were performed using the Biacore T200 SPR system (GE Healthcare, Biacore T200 control Software 3.2). Therefore, the Biotin CAPture kit, series S (Cytiva Europe, Cat.no. 28920234) was utilized. A freshly docked Biotin CAPture chip was rehydrated overnight in the instrument (standby mode). The following day, the chip surface was conditioned three times with regeneration solution (6 M guanidine-HCl, 0.25 M NaOH) for 60 s at 10 μL/min on flow cell (FC) 1 and FC2. Subsequently, the Biotin CAPture reagent (Cytiva Europe, Cat.no. 29423383) was applied for 300 s at 2 μL/min on FC1 and FC2, followed by capturing of 100 nM biotinylated murine or 150 nM biotinylated human STING, respectively. […]

The mark [4] stands for this setting: tumor, 3 h after final agonist injection, day 21.

`CCn1nc(C)cc1C(=O)Nc1nc2cc(C(N)=O)cc(OC)c2n1C/C=C/Cn1c(NC(=O)c2cc(C)nn2CC)nc2cc(C(N)=O)cc(OCCCC(=O)N(C)NC)c21` [I-D]: the “Tumor size (BioVolume) compared to vehicle control” value in test [1] (31, 3.1 and 0.31 nmol intratumorally at days 11, 16 and 21, until day 21) is listed as “marked decrease in tumor size”. Moreover, in test [1] (setting [4]), the “IFNα level in the tumor compared to diABZI” value is “higher levels” and the “IFNγ level in the tumor compared to diABZI” value was “higher levels”. The EC50 in test [2] (IFNα in supernatant, read-out: PBMC EC50 (μM) for IFNα) is 0.26 µM. Besides, in test [2] (IFNβ in supernatant, read-out: PBMC EC50 (μM) for IFNβ), the EC50 came to 0.265 µM. Also, the Kd in test [3] was found to be 4.13 pM.
